Here are results for one compound from article PMC11171921, “NinaB and BCO Collaboratively Participate in the β-Carotene Catabolism in Crustaceans: A Case Study on Chinese Mitten Crab Eriocheir sinensis” (International Journal of Molecular Sciences, 2024).

SMILES strings stand for the structures.

This assay has as its target T1, EsNinaBl (Eriocheir sinensis, UniProt Z9UJ24V2T0).
T1 construct: full ORF in pGEX-4T (GST fusion vector), expressed in beta-carotene-producing E. coli BL(DE3) with pAC-BETAipi; primer-encoded N-terminus MSTDEGG, C-terminus FIPAEAQ
T1 sequence (Z9UJ24V2T0 1-523): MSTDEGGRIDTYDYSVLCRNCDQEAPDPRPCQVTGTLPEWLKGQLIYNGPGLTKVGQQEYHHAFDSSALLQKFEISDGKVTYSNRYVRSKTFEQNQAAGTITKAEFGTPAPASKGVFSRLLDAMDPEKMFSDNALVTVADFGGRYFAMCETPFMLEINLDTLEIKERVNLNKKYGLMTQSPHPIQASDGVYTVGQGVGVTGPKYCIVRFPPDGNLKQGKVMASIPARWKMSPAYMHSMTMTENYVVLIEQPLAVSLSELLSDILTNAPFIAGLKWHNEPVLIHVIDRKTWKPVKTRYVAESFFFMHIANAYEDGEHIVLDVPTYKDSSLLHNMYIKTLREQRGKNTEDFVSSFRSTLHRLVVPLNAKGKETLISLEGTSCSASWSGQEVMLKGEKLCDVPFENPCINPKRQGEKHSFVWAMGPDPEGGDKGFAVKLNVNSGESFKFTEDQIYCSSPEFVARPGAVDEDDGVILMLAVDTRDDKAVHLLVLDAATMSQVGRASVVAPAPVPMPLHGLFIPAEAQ
Kind of assay: beta-carotene degradation and decolorization in beta-carotene-accumulating E. coli. Format: cell-based. The note with it: co-expression with pAC-BETAipi; […] IPTG induction; GST-fusion vector; products not identified.

For the compound `CC1=C(/C=C/C(C)=C/C=C/C(C)=C/C=C/C=C(C)/C=C/C=C(C)/C=C/C2=C(C)CCCC2(C)C)C(C)(C)CCC1` [β-carotene], the “beta-carotene degradation and decolorization in beta-carotene-accumulating E. co” value is on record as “evident decolorization was observed in the β-carotene-accumulated bacteria expressing EsNinaBl”.
